Results from US20050050587A1, “Inducers of plant disease resistance” (priority 2003, published 2005).

Tests used:
Type in all cases: in vivo, Nicotiana tabacum (Xanthi nc)
[1] = test system: PR-1a protein; assay: Induction and quantification of PR-1a protein after leaf infiltration of tobacco; conditions: for PR-1a induction, result in words: leaf infiltration; for PR-1a protein following treatment, 96 h / PR-1a protein following treatment, 192 h: compared to 1 mM SA at 96 h
Experimental: (§1) Tobacco (Nicotiana tabacum) plants (Xanthi nc) were grown in Promix PGX at 25 C and a 16/8 h photoperiod. Plants were fed a 1 g/L concentration of 20-20-20 (N-P-K fertilizer) twice a week. The Xanthi-nc variety carries the N-gene for resistance to TMV.
For evaluating pathogenesis-related protein induction, test compounds were dissolved in ethanol and dispersed in water (0.1% v/v ethanol). The most recently fully-expanded leaf on each plant was selected for infiltration. Infiltration was accomplished using a 5 mL disposable syringe (without needle). The solution was forced through the stomates of the abaxial surface of the leaf. Treatment solution was infiltrated into the leaf until the leaf was saturated.
All harvests were performed 96 hours after infiltration unless indicated. Briefly, treated leaves were de-veined, the remaining tissue was cut into 1 cm×1 cm pieces and vacuum-infiltrated with ice-cold extraction buffer. […] The extracellular fluid containing the acidic PR-1a protein was collected by centrifugation at 1000 g for 10 minutes at 4° C. After collection, samples were stored at −80° C. Protein concentrations of extracellular fluids were determined by Bradford dye reagent (BioRad, Richmond, Calif.) used BSA as a standard. Eight to ten μg of each protein sample were analyzed by electrophoresis on 14% Native Polyacrylamide gels (14% pre-cast Tris-Glycine gels; Invitrogen, Carlsbad, Calif.). Gels were stained with colloidal blue staining reagent (Invitrogen), and PR-1a protein was quantitated using a Model GS-710 densitometer (BioRad).

[2] = test system: tobacco mosaic virus (TMV); assay: Resistance measurement: TMV lesion diameter after spray application; conditions: for Percent decrease in TMV-lesion diameter: percent reduction in the diameter of TMV lesions
Experimental: as §1
(§2) Test compounds were dissolved in ETOH and dispersed in water (0.1% v/v ethanol). Spray solutions were amended with 0.25% crop oil concentrate (v/v). Plants were sprayed to drip, and moved to a glasshouse.
After spraying, one leaf per plant was inoculated with 1.0 ug TMV (U1; vulgare strain) at the times indicated. Six days post-inoculation, leaves were removed and the diameters of 20 necrotic lesions were measured per leaf. The mean lesion diameters from at least four plants per treatment were measured. Lesion diameter measures were subjected to two way analysis of variance (ANOVA) and Duncan's multiple range procedure at p=0.05.

[3] = test system: PR-1a protein; assay: Induction of PR-1a protein in Xanthi-nc tobacco after spray application; conditions: which equals 1
Experimental: as §1, with “TMV. Plants were treated with chemicals and/or virus at 5-6 weeks after sowing, when they had 5-7 fully-expanded leaves.” for “TMV.”
Proteins were harvested by the method of Yalpani et al. (1991; Plant Cell. 3:809-818). All harvests were performed 96 hours after infiltration unless indicated. Briefly, treated leaves were de-veined, the remaining tissue was cut into 1 cm×1 cm pieces and vacuum-infiltrated with ice-cold extraction buffer. Leaf tissue was blotted to remove excess buffer, and placed in a spin column assembly (Yalpani et al., 1991). The extracellular fluid containing the acidic PR-1a protein was collected by centrifugation at 1000 g for 10 minutes at 4° C. After collection, samples were stored at −80° C. Protein concentrations of extracellular fluids were determined by Bradford dye reagent (BioRad, Richmond, Calif.) used BSA as a standard. Eight to ten μg of each protein sample were analyzed by electrophoresis on 14% Native Polyacrylamide gels (14% pre-cast Tris-Glycine gels; Invitrogen, Carlsbad, Calif.). Gels were stained with colloidal blue staining reagent (Invitrogen), and PR-1a protein was quantitated using a Model GS-710 densitometer (BioRad).
as §2

[4] = 1 mM spray 48 h before TMV inoculation
[5] = 1 mM spray 96 h before TMV inoculation

| Compound | PR-1a induction, result in words [1] | Percent decrease in TMV-lesion diameter [2] [%] | other results |
| --- | --- | --- | --- |
| O=C(O)c1ccccc1F [2-Fluorobenzoic acid] | significantly reduced activity |  |  |
| O=C(O)c1c(O)c(Cl)cc(Cl)c1Cl [3,5,6-Trichlorosalicylic acid] |  | 45.1 |  |
| O=C(O)c1c(O)c(Cl)cc(Cl)c1O [3,5-Dichloro-6-hydroxysalicylic acid] |  | 48.3 |  |
| O=C(O)c1cc(Cl)cc(Cl)c1O [3,5-Dichlorosalicylic acid, reference compound] | showed the greatest induction of PR-1a | 36.6 | PR-1a protein following treatment, 96 h ([1]; 1 mM, which equals 1): 1.83; PR-1a protein following treatment, 192 h ([1]; 1 mM, which equals 1): 4.66 |
| O=C(O)c1cc(F)cc(F)c1O [3,5-Difluorosalicylic acid] | more induction at 96 hours than the corresponding chlorinated salicylates | 55.0 | PR-1a protein following treatment, 96 h ([1]; 1 mM, which equals 1): 3.64; PR-1a protein following treatment, 192 h ([1]; 1 mM, which equals 1): 3.21; Lesion diameter [2, 4]: 2.04 AB mm; Lesion diameter [2, 5]: 1.85 A mm; Reduction of TMV-lesion size / resistance to TMV, result in words ([2]; spray application): statistically equal to that induced by 5 mM Salicylic acid |
| O=C(O)c1cc([N+](=O)[O-])cc([N+](=O)[O-])c1O [3,5-Dinitrosalicylic acid] | completely deactivated |  | Mean PR Induction (relative induction of PR-1a protein) ([1]; 1 mM, 96 h post infiltration, compared to 1 mM SA, which equals 1): 0 |
| O=C(O)c1cc(F)cc(Cl)c1O [3-Chloro-5-fluorosalicylic acid] |  | 34 |  |
| O=C(O)c1cccc(Cl)c1O [3-Chlorosalicylic acid] |  | 55.1 |  |
| O=C(O)c1cc(Cl)cc(F)c1O [3-Fluoro-5-chlorosalicylic acid] |  | 47.4 |  |
| O=C(O)c1cccc(F)c1O [3-Fluorosalicylic acid] |  | 34.4 |  |
| O=C(O)c1ncccc1O [3-Hydroxypicolinic acid] | induced PR-1a accumulation more than equimolar SA |  |  |
| COc1cccc(C(=O)O)c1O [3-Methoxysalicylic acid] |  | 8.9 |  |
| O=C(O)c1cccc([N+](=O)[O-])c1O [3-Nitrosalicylic acid] | decreased activity |  |  |
| Nc1ccc(C(=O)O)c(O)c1 [4-Aminosalicylic acid] |  | 22.9 |  |
| O=C(O)c1ccc(Cl)cc1O [4-Chlorosalicylic acid, reference compound] |  | 30.2 |  |
| O=C(O)c1ccc(F)cc1O [4-Fluorosalicylic acid] |  | 36.2 |  |
| COc1ccc(C(=O)O)c(O)c1 [4-Methoxysalicylic acid] |  | 17.6 |  |
| O=C(O)c1cc(Cl)ccc1O [5-Chlorosalicylic acid, reference compound] |  | 38.7 | PR-1a protein following treatment, 96 h ([1]; 1 mM, which equals 1): 1.02; PR-1a protein following treatment, 192 h ([1]; 1 mM, which equals 1): 1.75 |
| O=C(O)c1cc(F)ccc1O [5-Fluorosalicylic acid] | more induction at 96 hours than the corresponding chlorinated salicylates | 38.0 | PR-1a protein following treatment, 96 h ([1]; 1 mM, which equals 1): 1.30; PR-1a protein following treatment, 192 h ([1]; 1 mM, which equals 1): 1.74 |
| COc1ccc(O)c(C(=O)O)c1 [5-Methoxysalicylic acid] |  | 9.7 |  |
| O=C(O)c1cc([N+](=O)[O-])ccc1O [5-Nitrosalicylic acid] | decreased activity |  |  |
| O=C(O)c1c(O)cccc1F [6-Fluorosalicylic acid] |  | 24.3 |  |
| COc1cccc(O)c1C(=O)O [6-Methoxysalicylic acid] |  | 13.3 |  |
| O=C(O)c1ccccc1 [Benzoic acid] | unable to induce PR-1a accumulation |  |  |
| CCOC(=O)C(C)OC(=O)c1cc(Oc2ccc(C(F)(F)F)cc2Cl)ccc1[N+](=O)[O-] (centres unmarked) [Lactofen, 1-(carboxyethoxy) ethyl 5-[2-chloro-4-(tri-fluoromethyl)phenoxy]-2-nitrobenzoate] |  |  | PR-1a (relative induction) ([3]; 290 ppm Lactofen, harvested 96 hours after spray application, compared to 1 mM SA): 0.44; PR-1a (relative induction) ([3]; 1450 ppm Lactofen, harvested 96 hours after spray application, compared to 1 mM SA): 2.00 |
| O=C([O-])c1ccccc1O.[Na+] [NaSA, sodium salicylate] |  |  | Lesion diameter ([2]; NaSA 1600 mg/l, 48 hours after application): 1.17 B mm; Lesion diameter ([2]; NaSA 1600 mg/l, 96 hours after application): 1.75 AB mm; PR-1a (relative induction) ([3]; 1600 ppm NaSA, harvested 96 hours after spray application, compared to 1 mM SA): 1.00; PR-1a (relative induction) ([3]; 8000 ppm NaSA, harvested 96 hours after spray application, compared to 1 mM SA): 4.56; PR-1a (relative induction) ([3]; NaSA 1600 mg/l, 48 hours after application, compared to infiltration with 1 mM SA at 96 h): 0.34; PR-1a (relative induction) ([3]; NaSA 1600 mg/l, 96 hours after application, compared to infiltration with 1 mM SA at 96 h): 1.02 |
| O=C(O)c1ccccc1O [Salicylic acid, reference compound] |  |  | PR-1a protein following treatment, 96 h ([1]; 1 mM, which equals 1): 1.00; PR-1a protein following treatment, 192 h ([1]; 1 mM, which equals 1): 1.46; Lesion diameter [2, 4]: 2.20 BC mm; Lesion diameter [2, 5]: 2.52 B mm; Lesion diameter ([2]; 5 mM spray 48 h before TMV inoculation): 1.88 A mm; Lesion diameter ([2]; 5 mM spray 96 h before TMV inoculation): 1.68 A mm |
| O=C(O)c1ccccc1S [Thiosalicylic acid] | significantly reduced activity |  |  |
| Salicylic acid/Sodiumsalicylate [reference compound] |  | 30.1 | Mean PR Protein Induction ([1]; 1 mM, 96 h post infiltration, compared to 1 mM SA, which equals 1 (Table 5)): 1.0 |
